Test results: the Deep4Chem optical property database
Blank lines part the entries; values can stand above or below the molecule they belong to.

Assay: photoluminescence quantum yield (fraction); solvent given as SMILES

photoluminescence quantum yield (in ClCCl): 0.4
SMILES: c1ccc(-c2c3ccccc3nc3cc4ccccc4cc23)cc1

photoluminescence quantum yield (in ClCCl): 0.52
SMILES: COc1ccc(C#Cc2ccc3nc4ccc(C#Cc5ccc(OC)cc5)cn4c(=O)c3c2)cc1

photoluminescence quantum yield (in CCO): 0.842
SMILES: Cc1c(COC(=O)c2ccc(I)cc2)n2c(OCC(=O)c3ccc(I)cc3)c(C)c(=O)n2c1=O

photoluminescence quantum yield (in CO): 0.002
SMILES: N#Cc1c(-n2nnc3ccccc32)n([C@H]2C[C@H](O)[C@@H](CO)O2)c2ncnc(N)c12

photoluminescence quantum yield (in CCCCCC): 0.42
photoluminescence quantum yield (in CO): 0.5
photoluminescence quantum yield (in ClCCl): 0.5
SMILES: C[Si](C)(C)c1ccc2ccc3c([Si](C)(C)C)ccc4ccc1c2c43

photoluminescence quantum yield (in ClCCl): 0.151
SMILES: CCCCCCCCCCCCN1C(=O)c2c(c3ccc4cc(-c5ccc(C)cc5)c(OC)cc4c3c3c2ccc2cc(-c4ccc(C)cc4)c(OC)cc23)C1=O

photoluminescence quantum yield (in ClC(Cl)Cl): 0.42
SMILES: CCCCCCN1C(=O)C(c2ccc(-n3c4ccccc4c4ccccc43)cc2)=C(c2ccc(-n3c4ccccc4c4ccccc43)cc2)C1=O
photoluminescence quantum yield (in c1ccc2c(c1)c1ccccc1n2-c1ccc(-c2ccc(-n3c4ccccc4c4ccccc43)cc2)cc1): 0.66

photoluminescence quantum yield (in C1CCCCC1): 0.61
SMILES: CCC(C)(C)c1ccc2c(c1)C(CCOC)(CCOC)c1cc(-c3ccc4c(c3)C(CCOC)(CCOC)c3cc(C(C)(C)CC)ccc3-4)ccc1-2

photoluminescence quantum yield (in CC#N): 0.57
photoluminescence quantum yield (in CCOC(C)=O): 0.69
photoluminescence quantum yield (in CN(C)C=O): 0.53
photoluminescence quantum yield (in CS(C)=O): 0.51
photoluminescence quantum yield (in c1ccccc1): 0.77
SMILES: CCOC(=O)CN(CC(=O)OCC)c1ccc(-c2cc(-c3cccnc3)nc(-c3cccnc3)c2)cc1

photoluminescence quantum yield (in ClCCl): 0.0612
SMILES: CC1(C)c2ccccc2N(c2ccc(-c3nc(-c4ccccn4)n(-c4ccccc4)n3)cc2)c2ccccc21

photoluminescence quantum yield (in CC#N): 0.11
SMILES: COc1ccccc1-c1nc2c([nH]1)C1=CC(=O)S[C@]1(C)[C@@]1(C)SC(=O)C=C21

photoluminescence quantum yield (in CC#N): 0.25
photoluminescence quantum yield (in CCCCCC): 0.37
SMILES: C(=C\c1cccnc1)/c1ccc(Nc2ccccc2)cc1

photoluminescence quantum yield (in CC#N): 0.01
SMILES: C[C@]12SC(=O)C=C1c1nc(-c3ccccc3O)[nH]c1C1=CC(=O)S[C@@]12C

photoluminescence quantum yield (in CCO): 0.0198
photoluminescence quantum yield (in ClCCl): 0.016
SMILES: N#CC(C#N)=Cc1ccc(-c2ccc(O)c(-c3nc4ccccc4s3)c2)s1

photoluminescence quantum yield (in CS(C)=O): 0.41
SMILES: O=C1CCCC2=C1C(c1ccccc1)c1c(c3ccccc3oc1=O)N2 (stereo unspecified)

photoluminescence quantum yield (in CCO): 0.37
photoluminescence quantum yield (in O): 0.45
SMILES: CC/[NH+]=c1\cc2oc3cc(NCCC(=O)NCC(=O)OC)c4ccccc4c3nc-2cc1C

photoluminescence quantum yield (in CC#N): 0.564
photoluminescence quantum yield (in CCCCCC): 0.108
photoluminescence quantum yield (in CO): 0.194
photoluminescence quantum yield (in ClC(Cl)Cl): 0.433
SMILES: c1ccc2cc3cc(-c4cc(-c5nccs5)nc(-c5nccs5)c4)ccc3cc2c1

photoluminescence quantum yield (in C1CCOC1): 0.37
SMILES: c1ccc(-n2c3c(c4c2-c2ccccc2C42c4ccccc4-c4ccccc42)C2(c4ccccc4-c4ccccc42)c2ccccc2-3)cc1

photoluminescence quantum yield (in ClCCl): 0.17
SMILES: c1ccc(B2Nc3cc4c(cc3-c3sccc32)NB(c2ccccc2)c2ccsc2-4)cc1

photoluminescence quantum yield (in ClC(Cl)Cl): 0.15
SMILES: Cc1ccc(/C2=c3\cc/c(o3)=C(\c3ccc(C)cc3)c3ccc([nH]3)-c3ccc4n3[P-](=O)(=O)[N+]3=C(C=CC3=C4c3ccc[nH]3)c3ccc2[nH]3)cc1

photoluminescence quantum yield (in O): 0.2
SMILES: Clc1ccc2cc3cccc[n+]3cc2c1

photoluminescence quantum yield (in CC#N): 0.04
photoluminescence quantum yield (in CCCCCC): 0.11
SMILES: Cc1cccc(C)c1Nc1ccc(/C=C/c2ccccc2)cc1

photoluminescence quantum yield (in C1CCCCC1): 0.72
SMILES: Cc1cc(C)c(B2c3cc(C(C)(C)C)cc4ccc5c6ccccc6c6cc(C(C)(C)C)cc2c6c5c34)c(C)c1

photoluminescence quantum yield (in CCCCCC): 0.37
SMILES: CC(C)[Si](C#Cc1ccc(C#C[Si](C(C)C)(C(C)C)C(C)C)c2nc3c(ccc4cc5ccccc5cc43)nc12)(C(C)C)C(C)C

More lines, now with the values behind:

SMILES: Cc1ccccc1-c1c2ccc(=[N+]3CCN(C(=O)OC(C)(C)C)CC3)cc-2oc2cc(N3CCN(C(=O)OC(C)(C)C)CC3)ccc12
photoluminescence quantum yield (in CCO): 0.19
photoluminescence quantum yield (in ClCCl): 0.47

SMILES: Cc1cscc1-c1cc2c3cc(-c4cscc4C)c4nc(C(F)(F)C(F)(F)C(F)(F)F)nc5c(-c6cscc6C)cc(c6cc(-c7cscc7C)c7nc(C(F)(F)C(F)(F)C(F)(F)F)nc1c7c26)c3c45
photoluminescence quantum yield (in C1CCOC1): 0.33

SMILES: Cc1ccc(/C=C/C(F)(F)F)c(N)c1
photoluminescence quantum yield (in C1CCOC1): 0.62

SMILES: CCCCc1cc(-c2cccc(COC)c2)oc1-c1cccc(-c2cc(CCCC)c(-c3cccc(-c4cc(CCCC)c(-c5cccc(-c6oc(-c7cccc(-c8oc(-c9cccc(-c%10oc(-c%11cccc(COC)c%11)cc%10CCCC)c9)cc8CCCC)c7)cc6CCCC)c5)o4)c3)o2)c1
photoluminescence quantum yield (in ClC(Cl)Cl): 0.54

SMILES: CCN1c2ccc(/C=N/Nc3ccccn3)cc2Sc2cc(-c3ccc(OC)cc3)ccc21
photoluminescence quantum yield (in C1CCOC1): 0.32
photoluminescence quantum yield (in CS(C)=O): 0.55
photoluminescence quantum yield (in Cc1ccccc1): 0.16
photoluminescence quantum yield (in ClCCl): 0.38

SMILES: CC(C)(C)c1ccc2c(c1)sc1[n+]2[B-](F)(F)n2c(c3cccc4c(Br)ccc2c43)=N1
photoluminescence quantum yield (in C1CCOC1): 0.63
photoluminescence quantum yield (in CC#N): 0.64
photoluminescence quantum yield (in CCCCCC): 0.68
photoluminescence quantum yield (in Cc1ccccc1): 0.64
photoluminescence quantum yield (in ClCCl): 0.72

SMILES: CC(C)(C)c1ccc(-n2c(-c3ccc(N(c4ccc(-c5ccc(N(c6ccc(-c7nc8c9ccccc9c9ccccc9c8n7-c7ccc(C(C)(C)C)cc7)cc6)c6ccc(-c7nc8c9ccccc9c9ccccc9c8n7-c7ccc(C(C)(C)C)cc7)cc6)cc5)cc4)c4ccc(-c5nc6c7ccccc7c7ccccc7c6n5-c5ccc(C(C)(C)C)cc5)cc4)cc3)nc3c4ccccc4c4ccccc4c32)cc1
photoluminescence quantum yield (in ClCCl): 0.451

SMILES: Nc1cccc2c1C(=O)NC2=O
photoluminescence quantum yield (in C1CCOC1): 0.97
photoluminescence quantum yield (in CCO): 0.74
photoluminescence quantum yield (in CN(C)C=O): 0.66

SMILES: CCN(CC)c1ccc2cc(-c3csc(N)c3C#N)c(=O)oc2c1
photoluminescence quantum yield (in C1CCOC1): 0.62
photoluminescence quantum yield (in CO): 0.02
photoluminescence quantum yield (in CS(C)=O): 0.04
photoluminescence quantum yield (in Cc1ccccc1): 0.74
photoluminescence quantum yield (in ClCCl): 0.6

SMILES: c1ccc(-c2nc3c(c4c2-c2ccccc2CC4)-c2ccccc2CC3)cc1
photoluminescence quantum yield (in C1CCOC1): 0.009
photoluminescence quantum yield (in CC#N): 0.001
photoluminescence quantum yield (in CCCCCC): 0.001
photoluminescence quantum yield (in CCOC(C)=O): 0.03
photoluminescence quantum yield (in CO): 0.002
photoluminescence quantum yield (in CS(C)=O): 0.003
photoluminescence quantum yield (in Cc1ccccc1): 0.002
photoluminescence quantum yield (in ClCCl): 0.01

SMILES: CC(C)(C)c1ccc2c(c1)c1cc(C(C)(C)C)cc3c1n2B1c2c-3cccc2-c2cc(C(C)(C)C)cc3c4cc(C(C)(C)C)ccc4n1c23
photoluminescence quantum yield (in C1CCOC1): 0.63

SMILES: Cc1ccc(NC(=O)c2ccc(N(C)C)cc2)cc1
photoluminescence quantum yield (in C1CCCCC1): 0.0015
photoluminescence quantum yield (in C1CCOC1): 0.0028
photoluminescence quantum yield (in CC#N): 0.0027
photoluminescence quantum yield (in CCOCC): 0.0034

SMILES: Cc1cc(C)c(B(c2ccc(-n3c4ccccc4c4ccccc43)cc2)c2c(C)cc(C)cc2C)c(C)c1
photoluminescence quantum yield (in Cc1ccccc1): 0.75

SMILES: CCN(CC)c1ccc2c(-c3ccc(S(=O)(=O)O)cc3S(=O)(=O)[O-])c3ccc(=[N+](CC)CC)cc-3oc2c1
photoluminescence quantum yield (in CC#N): 0.58
photoluminescence quantum yield (in CCO): 0.66
photoluminescence quantum yield (in CN(C)C=O): 0.54
photoluminescence quantum yield (in O): 0.36

SMILES: COc1cc(N(c2ccccc2)c2ccccc2)ccc1C=C(C#N)C#N
photoluminescence quantum yield (in C1COCCO1): 0.012
photoluminescence quantum yield (in CC#N): 0.005
photoluminescence quantum yield (in CC(C)=O): 0.013
photoluminescence quantum yield (in CCOC(C)=O): 0.017
photoluminescence quantum yield (in CN(C)C=O): 0.009
photoluminescence quantum yield (in CO): 0.006
photoluminescence quantum yield (in Cc1ccccc1): 0.01
photoluminescence quantum yield (in ClC(Cl)Cl): 0.023
photoluminescence quantum yield (in ClCCl): 0.016

SMILES: COc1ccc2c3ccc(OC)cc3n(-c3ccc(-c4nnc(-c5c(C)cc(C)cc5C)o4)cc3C)c2c1
photoluminescence quantum yield (in Cc1ccccc1): 0.06

SMILES: CN(C)c1ccc(C2=Nc3scc(-c4ccc(N(C)C)cc4)[n+]3[B-](F)(F)O2)cc1
photoluminescence quantum yield (in C1CCOC1): 0.01
photoluminescence quantum yield (in CC#N): 0
photoluminescence quantum yield (in Cc1ccccc1): 0.66
photoluminescence quantum yield (in ClCCl): 0.04

SMILES: N#Cc1ccc2c(c1)CCc1nc(-c3ccc([N+](=O)[O-])cc3)c3c(c1-2)CCc1cc(C#N)ccc1-3
photoluminescence quantum yield (in C1CCOC1): 0.043
photoluminescence quantum yield (in CC#N): 0.039
photoluminescence quantum yield (in CCCCCC): 0.3
photoluminescence quantum yield (in CCOC(C)=O): 0.015
photoluminescence quantum yield (in CO): 0.01
photoluminescence quantum yield (in CS(C)=O): 0.073
photoluminescence quantum yield (in Cc1ccccc1): 0.014
photoluminescence quantum yield (in ClCCl): 0.292

SMILES: Cc1cc(C)c(C2=C3C=C(/C=C/C(=O)OC(C)(C)C)C=[N+]3[B-](F)(F)n3cccc32)c(C)c1
photoluminescence quantum yield (in ClCCl): 0.3

SMILES: CCOC(=O)c1ccc2c(c1)[se]c1c3ccc(C(=O)OCC)cc3[se]c21
photoluminescence quantum yield (in CCCO): 0.002

SMILES: CC1(C)c2ccccc2N(c2ccccc2)c2ccc(S(=O)(=O)c3ccc4c(c3)C(C)(C)c3ccccc3N4c3ccccc3)cc21
photoluminescence quantum yield (in O=P(c1ccccc1)(c1ccccc1)c1ccccc1Oc1ccccc1P(=O)(c1ccccc1)c1ccccc1): 0.5

SMILES: CCCCCCCCCCCCc1ccc(-c2cc(C)[o+]c(C)c2)cc1
photoluminescence quantum yield (in CC#N): 0.36
photoluminescence quantum yield (in ClCCl): 0.37

SMILES: CCC12C(=C3C(=C4c5ccc(-c6ccc(C(C)=O)cc6)cc5S(=O)(=O)C41CC)C(F)(F)C(F)(F)C3(F)F)c1ccc(-c3ccc(C(C)=O)cc3)cc1S2(=O)=O (stereo unspecified)
photoluminescence quantum yield (in C1COCCO1): 0.87

SMILES: CN(CC(O)c1cccc(O)c1)c1ccc([N+](=O)[O-])c(C2CC(c3cccc4ccccc34)=NN2c2ccccc2)c1 (stereo unspecified)
photoluminescence quantum yield (in C1CCCCC1): 0.16
photoluminescence quantum yield (in C1CCOC1): 0.27
photoluminescence quantum yield (in C1COCCO1): 0.5
photoluminescence quantum yield (in CC#N): 0.25
photoluminescence quantum yield (in CC(C)O): 0.17
photoluminescence quantum yield (in CCOC(C)=O): 0.25
photoluminescence quantum yield (in CCOCC): 0.23
photoluminescence quantum yield (in CO): 0.19
photoluminescence quantum yield (in Cc1ccccc1): 0.18
photoluminescence quantum yield (in ClC(Cl)Cl): 0.22
photoluminescence quantum yield (in O): 0.16

SMILES: Fc1c(-n2c3ccccc3c3ccccc32)c(-c2nnc(-c3ccccc3)o2)c(-n2c3ccccc3c3ccccc32)c(-n2c3ccccc3c3ccccc32)c1-n1c2ccccc2c2ccccc21
photoluminescence quantum yield (in Cc1ccccc1): 0.1

SMILES: COC1(OC)C2(Cl)c3nc4cc(-c5cccs5)ccc4nc3C1(Cl)C1C[C@H]3[C@@H](CC12)C1(Cl)c2nc4ccc(-c5cccs5)cc4nc2C3(Cl)C1(OC)OC (stereo partly specified)
photoluminescence quantum yield (in CC#N): 0.57
photoluminescence quantum yield (in CCOC(C)=O): 0.22
photoluminescence quantum yield (in CO): 0.49
photoluminescence quantum yield (in Cc1ccccc1): 0.13
photoluminescence quantum yield (in ClC(Cl)Cl): 0.35
photoluminescence quantum yield (in ClCCl): 0.33

SMILES: C=C[C@]12CC[C@H](CC1)N=N2
photoluminescence quantum yield (in CC#N): 0.0009
